Test results published in patent US4435583A, “2-Halo-substituted monic acid A useful as antibacterial compounds” (Beecham Group p.l.c., priority 1981, dated 1984).
In brackets after ≈: the same amount, converted by molar mass.

How the values were obtained:
Format in all cases: cell-based
[1] = tested on: M. hyosynoviae ATCC 25591; assay: In vitro anti-mycoplasmal MIC; conditions: 144 h, Friis broth, 0.9% agarose, 6 days, 37° C., read-out: MIC
M. hyorhinis ATCC 23234 = assay: In vitro anti-mycoplasmal MIC; conditions: Mesomycoplasma hyorhinis, ATCC23234, 144 h, Friis broth, 0.9% agarose, 6 days, 37° C., read-out: MIC
[2] = tested on: M. suipneumoniae NCTC 10110; assay: In vitro anti-mycoplasmal MIC; conditions: Friis broth, 0.9% agarose, 6 days, 37° C.
M. suipneumoniae TAM 6N = assay: In vitro anti-mycoplasmal MIC; conditions: Friis broth, 0.9% agarose, 6 days, 37° C.
M. dispar NCTC 10125 = assay: In vitro anti-mycoplasmal MIC; conditions: 144 h, Friis broth, 0.9% agarose, 6 days, 37° C., read-out: MIC
[3] = tested on: M. suipneumoniae J2206/183b; assay: In vitro anti-mycoplasmal MIC; conditions: Friis broth, 0.9% agarose, 6 days, 37° C.
M. gallisepticum S6 = assay: In vitro anti-mycoplasmal MIC; conditions: Friis broth, 0.9% agarose, 6 days, 37° C.
M. suipneumoniae MS16 = assay: In vitro anti-mycoplasmal MIC; conditions: Mesomycoplasma hyopneumoniae, 144 h, Friis broth, 0.9% agarose, 6 days, 37° C., read-out: MIC
[4] = tested on: Corynebacterium pyogenes CY1; assay: MIC against veterinary bacteria; conditions: Diagnostic Sensitivity Test Agar, 18 hours, 37° C.
Experimental: (§1) The values were determined using a two fold serial dilutions in Diagnostic Sensitivity Test Agar with an inoculum of 10^4 organisms and incubation for 18 hours at 37° C.

E. coli E1 = assay: MIC against veterinary bacteria; conditions: Diagnostic Sensitivity Test Agar, 18 hours, 37° C.
Experimental: as §1

Staph. aureus 152 = assay: MIC against veterinary bacteria; conditions: Diagnostic Sensitivity Test Agar, 18 hours, 37° C.
Experimental: as §1

[5] = tested on: Strep. suis (group D) SPS11; assay: MIC against veterinary bacteria; conditions: Diagnostic Sensitivity Test Agar, 18 hours, 37° C.
Experimental: as §1

Strep. dysgalactiae SPD1 = assay: MIC against veterinary bacteria; conditions: Diagnostic Sensitivity Test Agar, 18 hours, 37° C.
Experimental: as §1

[6] = tested on: Erysipelothrix rhusiopathiae NCTC 8163; assay: MIC against veterinary bacteria; conditions: Diagnostic Sensitivity Test Agar, 18 hours, 37° C.
Experimental: as §1

S. typhimurium S18 = assay: MIC against veterinary bacteria; conditions: Diagnostic Sensitivity Test Agar, 18 hours, 37° C.
Experimental: as §1

Past. multocida PA1 = assay: MIC against veterinary bacteria; conditions: Diagnostic Sensitivity Test Agar, 18 hours, 37° C.
Experimental: as §1

Staph. aureus B4 = assay: MIC against veterinary bacteria; conditions: Diagnostic Sensitivity Test Agar, 18 hours, 37° C.
Experimental: as §1

Past. haemolytica PA5 = assay: MIC against veterinary bacteria; conditions: Diagnostic Sensitivity Test Agar, 18 hours, 37° C.
Experimental: as §1

S. dublin S7 = assay: MIC against veterinary bacteria; conditions: Diagnostic Sensitivity Test Agar, 18 hours, 37° C.
Experimental: as §1

Strep. agalactiae SPA1 = assay: MIC against veterinary bacteria; conditions: Diagnostic Sensitivity Test Agar, 18 hours, 37° C.
Experimental: as §1

Bord. bronchiseptica B09 = assay: MIC against veterinary bacteria; conditions: Diagnostic Sensitivity Test Agar, 18 hours, 37° C.
Experimental: as §1

Strep. uberis SPU1 = assay: MIC against veterinary bacteria; conditions: Strep. uberis SPU1; Diagnostic Sensitivity Test Agar; 18 hours, 37° C.
Experimental: as §1

Bord. bronchiseptica B08 = assay: MIC against veterinary bacteria; conditions: Diagnostic Sensitivity Test Agar, 18 hours, 37° C.
Experimental: as §1

Staph. aureus Oxford [7] = assay: MIC against veterinary bacteria; conditions: Diagnostic Sensitivity Test Agar, 18 hours, 37° C.
Experimental: as §1

Past. multocida PA2 = assay: MIC against veterinary bacteria; conditions: Diagnostic Sensitivity Test Agar, 18 hours, 37° C.
Experimental: as §1

E. coli NCTC 10418 [8] = assay: MIC against veterinary bacteria; conditions: Diagnostic Sensitivity Test Agar, 18 hours, 37° C.
Experimental: as §1

[9] = tested on: M. suipneumoniae ATCC 25095; assay: In vitro anti-mycoplasmal MIC; conditions: Friis broth, 0.9% agarose, 6 days, 37° C.
[10] = tested on: M. suipneumoniae PW/C/210; assay: In vitro anti-mycoplasmal MIC; conditions: Mesomycoplasma hyopneumoniae, 144 h, Friis broth, 0.9% agarose, 6 days, 37° C., read-out: MIC
M. suipneumoniae HK(2) = assay: In vitro anti-mycoplasmal MIC; conditions: Friis broth, 0.9% agarose, 6 days, 37° C.
M. suipneumoniae Str.11 = assay: In vitro anti-mycoplasmal MIC; conditions: Friis broth, 0.9% agarose, 6 days, 37° C.
M. suipneumoniae NB12 = assay: In vitro anti-mycoplasmal MIC; conditions: Friis broth, 0.9% agarose, 6 days, 37° C.
M. hyorhinis ATCC 25021 = assay: In vitro anti-mycoplasmal MIC; conditions: Mesomycoplasma hyorhinis, ATCC25021, 144 h, Friis broth, 0.9% agarose, 6 days, 37° C., read-out: MIC
M. bovis NCTC 10131 = assay: microbe, parasite or virus in culture; conditions: M. bovis NCTC 10131; Friis broth, 0.9% agarose; 6 days, 37° C.
[11] = tested on: Haemophilus influenzae Wy21; assay: MIC against human bacteria; conditions: nutrient agar, 5% chocolated horse blood, 18 hours, 37° C., read-out: MIC
Experimental: (§2) The values were determined by serial dilutions in nutrient agar with 5% chocolated horse blood after incubations for 18 hours at 37° C.

Strep. faecalis I = assay: MIC against human bacteria; conditions: nutrient agar, 5% chocolated horse blood, 18 hours, 37° C.
Experimental: as §2

Sarcina lutea 8340 = assay: MIC against human bacteria; conditions: nutrient agar, 5% chocolated horse blood, 18 hours, 37° C.
Experimental: as §2

P. mirabilis 889 = assay: MIC against human bacteria; conditions: nutrient agar, 5% chocolated horse blood, 18 hours, 37° C.
Experimental: as §2

Strep. pneumoniae CN33 = assay: MIC against human bacteria; conditions: nutrient agar, 5% chocolated horse blood, 18 hours, 37° C.
Experimental: as §2

Strep. 2788-B = assay: MIC against human bacteria; conditions: nutrient agar, 5% chocolated horse blood, 18 hours, 37° C.
Experimental: as §2

Bacillus subtilis 6633 = assay: MIC against human bacteria; conditions: nutrient agar, 5% chocolated horse blood, 18 hours, 37° C.
Experimental: as §2

[12] = tested on: Ps. aeruginosa NCTC 10662; assay: MIC against human bacteria; conditions: nutrient agar, 5% chocolated horse blood, 18 hours, 37° C.
Experimental: as §2

[13] = tested on: Corynebacterium xerosis 9755; assay: MIC against human bacteria; conditions: nutrient agar, 5% chocolated horse blood, 18 hours, 37° C.
Experimental: as §2

[14] = tested on: Haemophilus influenzae Q1; assay: MIC against human bacteria; conditions: nutrient agar, 5% chocolated horse blood, 18 hours, 37° C., read-out: MIC
Experimental: as §2

[15] = tested on: Strep. pyrogenes R80/421-A; assay: MIC against human bacteria; conditions: nutrient agar, 5% chocolated horse blood, 18 hours, 37° C.
Experimental: as §2

Strep. 641848-C = assay: MIC against human bacteria; conditions: nutrient agar, 5% chocolated horse blood, 18 hours, 37° C.
Experimental: as §2

Staph. aureus W2827 = assay: MIC against human bacteria; conditions: nutrient agar, 5% chocolated horse blood, 18 hours, 37° C.
Experimental: as §2

Staph. aureus Oxford [16] = assay: MIC against human bacteria; conditions: nutrient agar, 5% chocolated horse blood, 18 hours, 37° C.
Experimental: as §2

E. coli ESS = assay: MIC against human bacteria; conditions: nutrient agar, 5% chocolated horse blood, 18 hours, 37° C.
Experimental: as §2

[17] = tested on: Neisseria catarrhalis 1502; assay: MIC against human bacteria; conditions: nutrient agar, 5% chocolated horse blood, 18 hours, 37° C.
Experimental: as §2

E. coli NCTC 10418 [18] = assay: MIC against human bacteria; conditions: nutrient agar, 5% chocolated horse blood, 18 hours, 37° C.
Experimental: as §2

Staph. aureus Russell = assay: MIC against human bacteria; conditions: nutrient agar, 5% chocolated horse blood, 18 hours, 37° C.
Experimental: as §2

K. aerogenes A = assay: MIC against human bacteria; conditions: nutrient agar, 5% chocolated horse blood, 18 hours, 37° C.
Experimental: as §2

Past. multocida 1633 = assay: MIC against human bacteria; conditions: nutrient agar, 5% chocolated horse blood, 18 hours, 37° C.
Experimental: as §2

M. suipneumoniae JF435 = assay: In vitro anti-mycoplasmal MIC; conditions: Friis broth, 0.9% agarose, 6 days, 37° C.
M. pneumoniae ATCC 15492 = assay: In vitro anti-mycoplasmal MIC; conditions: Friis broth, 0.9% agarose, 6 days, 37° C.
[19] = tested on: M. bovigenitalium ATCC 14173; assay: In vitro anti-mycoplasmal MIC; conditions: 144 h, Friis broth, 0.9% agarose, 6 days, 37° C., read-out: MIC
M. suipneumoniae LABER = assay: In vitro anti-mycoplasmal MIC; conditions: Mesomycoplasma hyopneumoniae, 144 h, Friis broth, 0.9% agarose, 6 days, 37° C., read-out: MIC
M. suipneumoniae UCD 1 = assay: In vitro anti-mycoplasmal MIC; conditions: Friis broth, 0.9% agarose, 6 days, 37° C.

CCOC(=O)C(F)=C(C)CC1OCC(CC2OC2C(C)C(C)O)C(O)C1O [Example 2, Ethyl-4-[5S-(2S,3S-epoxy-5S-hydroxy-4S-methylhexyl)-3R, 4R-dihydroxytetrahydropyran-2S-yl]-2-fluoro-3-methylbut-2(E)-enoate]
MIC [1]: 10 µg/mL (≈ 25.6 µM)
MIC (M. hyorhinis ATCC 23234): 5 µg/mL (≈ 12.8 µM)
MIC [2]: 10.0 µg/mL (≈ 25.6 µM)
MIC (M. suipneumoniae TAM 6N): 10.0 µg/mL (≈ 25.6 µM)
MIC (M. dispar NCTC 10125): 2.5 µg/mL (≈ 6.4 µM)
MIC [3]: 10.0 µg/mL (≈ 25.6 µM)
MIC (M. gallisepticum S6): 10.0 µg/mL (≈ 25.6 µM)
MIC (M. suipneumoniae MS16): 5 µg/mL (≈ 12.8 µM)
MIC [4]: 80.0 µg/mL (≈ 205 µM)
MIC (E. coli E1): > 80.0 µg/mL
MIC (Staph. aureus 152): 40.0 µg/mL (≈ 102 µM)
MIC [5]: 80.0 µg/mL (≈ 205 µM)
MIC (Strep. dysgalactiae SPD1): 40.0 µg/mL (≈ 102 µM)
MIC [6]: 80.0 µg/mL (≈ 205 µM)
MIC (S. typhimurium S18): > 80.0 µg/mL
MIC (Past. multocida PA1): 40.0 µg/mL (≈ 102 µM)
MIC (Staph. aureus B4): 40.0 µg/mL (≈ 102 µM)
MIC (Past. haemolytica PA5): 80.0 µg/mL (≈ 205 µM)
MIC (S. dublin S7): > 80.0 µg/mL
MIC (Strep. agalactiae SPA1): 80.0 µg/mL (≈ 205 µM)
MIC (Bord. bronchiseptica B09): > 80.0 µg/mL
MIC (Strep. uberis SPU1): 20.0 µg/mL (≈ 51.2 µM)
MIC (Bord. bronchiseptica B08): > 80.0 µg/mL
MIC (Staph. aureus Oxford [7]): 40.0 µg/mL (≈ 102 µM)
MIC (Past. multocida PA2): 20.0 µg/mL (≈ 51.2 µM)
MIC (E. coli NCTC 10418 [8]): > 80.0 µg/mL
MIC [9]: 10.0 µg/mL (≈ 25.6 µM)
MIC [10]: 5 µg/mL (≈ 12.8 µM)
MIC (M. suipneumoniae HK(2)): 10.0 µg/mL (≈ 25.6 µM)
MIC (M. suipneumoniae Str.11): 5.0 µg/mL (≈ 12.8 µM)
MIC (M. suipneumoniae NB12): 10.0 µg/mL (≈ 25.6 µM)
MIC (M. hyorhinis ATCC 25021): 5 µg/mL (≈ 12.8 µM)
MIC (M. bovis NCTC 10131): 0.25 µg/mL (≈ 0.64 µM)
MIC [11]: 10 µg/mL (≈ 25.6 µM)
MIC (Strep. faecalis I): > 100.0 µg/mL
MIC (Sarcina lutea 8340): > 100.0 µg/mL
MIC (P. mirabilis 889): > 100.0 µg/mL
MIC (Strep. pneumoniae CN33): 100.0 µg/mL (≈ 256 µM)
MIC (Strep. 2788-B): > 100.0 µg/mL
MIC (Bacillus subtilis 6633): 100.0 µg/mL (≈ 256 µM)
MIC [12]: > 100.0 µg/mL
MIC [13]: > 100.0 µg/mL
MIC [14]: 10 µg/mL (≈ 25.6 µM)
MIC [15]: 100.0 µg/mL (≈ 256 µM)
MIC (Strep. 641848-C): 100.0 µg/mL (≈ 256 µM)
MIC (Staph. aureus W2827): 50.0 µg/mL (≈ 128 µM)
MIC (Staph. aureus Oxford [16]): 25.0 µg/mL (≈ 64 µM)
MIC (E. coli ESS): 50.0 µg/mL (≈ 128 µM)
MIC [17]: 10.0 µg/mL (≈ 25.6 µM)
MIC (E. coli NCTC 10418 [18]): > 100.0 µg/mL
MIC (Staph. aureus Russell): 50.0 µg/mL (≈ 128 µM)
MIC (K. aerogenes A): > 100.0 µg/mL
MIC (Past. multocida 1633): 50.0 µg/mL (≈ 128 µM)
MIC (M. suipneumoniae JF435): 10.0 µg/mL (≈ 25.6 µM)
MIC (M. pneumoniae ATCC 15492): 10.0 µg/mL (≈ 25.6 µM)
MIC [19]: 0.5 µg/mL (≈ 1.28 µM)
MIC (M. suipneumoniae LABER): 5 µg/mL (≈ 12.8 µM)
MIC (M. suipneumoniae UCD 1): 10.0 µg/mL (≈ 25.6 µM)
